Holding throughout (format): in vivo, human
Assay [1] is described as follows: Clinical responses of hormone allergy symptoms to intradermal administration of progesterone. To be noted: dilute doses, sublingually or intradermally. As to the method: Patients experiencing several hormone allergy symptoms experienced relief when administered dilute doses of progesterone either sublingually or intradermally. […] The symptoms measured were irritation or pain in the neck, nose, eyes, throat, ear, skin, back, hips, upper extremities and lower extremities, headache, and shortness of breath. The patients were administered 0.5 mg of progesterone intradermally. Patients were designated as responding patients in Table 2 if they experienced any relief of the indicated symptom. Patients were also asked to estimate the amount of improvement in the symptom, an average of which is indicated as the % improvement in responding patients. In Table 3 the probability that positive results (i.e. patients responding to treatment) were due to random effects was calculated using standard statistical analysis of patient tests. It was assumed that if the treatment has no effect, there is a 50% chance that a patient will indicate a positive response and a 50% chance that a patient will indicate a negative response. From this assumption, coupled with the actual data, one may calculate the probability that positive responses are due to an actual effect of the treatment and not simply random effects. In general, results with a less than 1% chance of being random are considered highly significant. […]

A short description of assay [2]: Symptom relief on a 0 to 10 scale in women with acute asthma after intradermal progesterone. As to the method: To test this hypothesis, 142 women with acute asthma were asked to evaluate the severity of their symptoms using an eleven point scale. Ten was assigned to the most severe symptoms, while 0 was assigned to an absence of symptoms. Immediately after assessing their symptoms on this scale, patents were administered 0.5 mg of progesterone by intradermal injection. Approximately 15 to 30 seconds after the injection was administered, each patient was asked if her symptoms were worse, better, or unchanged. Each patient was also asked to rate her present symptoms on the same 0 to 10 scale. […] Of the 142 patients tested 129 (91%) positively responded to the treatment. Using the random effects calculations described in Example 3, this correlates to a less than 0.1% chance that the results are random. Thus the results may be considered highly significant.

A short description of assay [3]: Relief of symptoms with intradermal estrogen in patients not relieved by progesterone. Particulars: 0.4 mg intradermally; many patients whose symptoms are not relieved using progesterone.
The mark [4] stands for this setting: 0.5 mg intradermal injection, 142 women with acute asthma, 15 to 30 seconds after injection.

Regarding `CC(=O)[C@H]1CC[C@H]2[C@@H]3CCC4=CC(=O)CC[C@]4(C)[C@H]3CC[C@]12C` [Progesterone], the “effectiveness in producing symptom relief as compared to several other antigens” value in assay [1] is “most effective”. Besides, the speed of relief result in assay [1] (in most patients) is “very quickly”. Moreover, the “average symptomatic relief for those who reported some response” value in assay [2] (0 to 10 scale, responders only) is 5 points. Also, the “average symptomatic relief for all patients” value in assay [2] (0 to 10 scale, responding and not responding patients) was 3.4 points. For the same molecule, in assay [2] (0.5 mg intradermal injection), the “% of patients reporting 100% relief of asthma symptoms” value is given as 28% and the “average reduction in symptoms relative to the maximum individual patient score” value was found to be 62%. For the same molecule, in assay [2] (setting [4]), the “% of patients positively responding to the treatment” value is given as 91% and the “number of patients positively responding to the treatment” value is listed as 129. The “number of patients reporting 100% relief of asthma symptoms” value in assay [2] (0.5 mg intradermal injection, of the 129 patients with symptom relief) stood at 40.
As for estrogen, the relief of symptoms result in assay [3] is “experience relief”.

The values above are taken from US20050065136A1, “Methods and compositions for the treatment of infertility using dilute hormone solutions” (priority 2003, published 2005).
